Measured values from patent US5858978A, “Pharmaceutical compositions containing calcitonin gene-related peptide (CGRP) and use thereof to ameliorate hyperimmune mediated diseases and abnormal conditions” (Yale University, priority 1997, dated 1999).
Like-named read-outs stand apart in the source and are kept apart here. One block for each molecule: values may come before it.

Assays:
[1] = test system: giant cells (fused alveolar macrophages); experiment: IL-1 release by giant cells (fused alveolar macrophages), IL-1 bioassay of supernatants; assay type: cell-based, rat; settings: added to release medium on day 3, 24 hour release
Description: (§1) Rat alveolar and peritoneal macrophages were obtained from 12 week old Fisher 344 rats (Charles River, Kingston, N.Y.). Alveolar macrophages were collected by tracheobronchial lavage as previously described (Vignery et al., J. Histochem Cytochem. , 1989). Peritoneal macrophages were collected from the same rats prior to the lung lavage. The collected cells were: (i) washed twice in Minimum Essential Medium with Earle's salts (MEME) supplemented with 2 mM L-glutamine and vitamins; (ii) plated in 6 well dishes at 10^7 cells/ml, 10^6 cells per well, in MEME containing 10% heat inactivated human serum (HS); (iii) incubated for 20 minutes at 37° C. in 5% CO2, 95% air to let the macrophages adhere; (iv) subsequently grown at 10^6 cells/ml of MEME containing 5% heat inactivated HS. Cells were cultured in FCS for the IL-6 bioassay. All tissue culture reagents were purchased from Gibco Laboratories, Grand Island, N.Y. The adherent cell populations were composed of 99% macrophages and a few occasional polymorphonuclear cells as determined by Wright stain.
(§2) To estimate the release of IL-1 and IL-6 by peritoneal macrophages and fused alveolar macrophages, the cells were collected and cultured as described above. Prior to perform the release, the cells were washed twice with warm MEME and subsequently incubated for 24 hours in 1 ml of MEME supplemented with 5% of HS or FCS, with or without agonist. At the termination of the release, the supernatant were collected, spun at 400 g for 10 minutes, transferred to microfuge tubes and stored at -20° C. until assayed. Macrophages remained adherent and viable in all experiments as determined by DNA measurements and trypan blue exclusion.
IL-1 activity in the macrophage supernatants was measured according to Gillis and Mizel (Proc. Natl. Acad. Sci., USA, 1981, 78:1133-1137). LBRM-33 cells, clones 1A5 and 5A4 (ATCC, Rockville, Md.) were stimulated with either PHA (Gibco), rm IL-1β or log2 dilutions of the macrophage supernatants. […] After 24 hours, the cells were exposed to 0.5 μCi[^3 H]dThd (20 mCi/mmol, New England Nuclear) for an additional 4 hours after which the cultures were harvested onto glass fiber filter strips with the aid of a multiple automated sample harvester (MASH 11, Microbiological Associates, Bethesda, Md.) [^3 H]dThd incorporation was determined by direct counting.
When peritoneal macrophages from the same animals are grown in these conditions, they remain mononucleated and can therefore be used as a nonfusing control population. It was previously confirmed that giant cells differentiate in vitro by actual cell-cell fusion since DNA synthesis cannot be detected and that the total amount of DNA remains constant during culture in both alveolar and peritoneal macrophages. […]

peritoneal macrophages [2] = experiment: IL-1 release by peritoneal macrophages (IL-1 bioassay of supernatants); assay type: cell-based, rat; settings: for IL-1 activity detected in peritoneal macrophage supernatants: added to release medium on day 3, 24 hour release
Description: as §1, §2
(§3) IL-1 activity in the macrophage supernatants was measured according to Gillis and Mizel (Proc. Natl. Acad. Sci., USA, 1981, 78:1133-1137). LBRM-33 cells, clones 1A5 and 5A4 (ATCC, Rockville, Md.) were stimulated with either PHA (Gibco), rm IL-1β or log2 dilutions of the macrophage supernatants. LBRM-33 lymphocyte supernatants were harvested from 24 hour cultures and subsequently tested for IL-2 activity using a standard microassay, Gillis et al. (J. Immunol., 1978, 120:2027-2032), based on the IL-2 dependent exponential proliferation of a murine cytotoxic T-cell line CTLL (ATCC, Rockville, Md.), Gillis and Smith (Nature (London), 1977, 268:154-156). CTLL cells were cultured in the presence of a log2 dilution series of putative IL-2 containing samples. After 24 hours, the cells were exposed to 0.5 μCi[^3 H]dThd (20 mCi/mmol, New England Nuclear) for an additional 4 hours after which the cultures were harvested onto glass fiber filter strips with the aid of a multiple automated sample harvester (MASH 11, Microbiological Associates, Bethesda, Md.) [^3 H]dThd incorporation was determined by direct counting.

[3] = test system: peritoneal macrophages and giant cells; experiment: IL-6 release by peritoneal and fused alveolar macrophages (IL-6 bioassay, B13.29 subclone B9); assay type: cell-based, rat
Description: as §1, §2
Five thousand,B13.29 cells subclone B9 (donated by Dr. Thomas Kupper, Washington University of School of Medicine, Washington, Mo.) were cultured in the presence of a log2 dilution series of macrophage supernatants or standard dilutions of rmIL-6 according to Aarden, L. A. ( Eur. J. Immunol., 1987, 17:1411-1416). […]

peritoneal macrophages [4] = experiment: Generation of intracellular cAMP in peritoneal macrophages (radioimmunoassay); assay type: cell-based, rat; settings: for cAMP accumulation in peritoneal macrophages: all time points examined
Description: as §1
(§4) For cAMP studies, cells were grown under the conditions described above but using either 24 or 96 well dishes. Each well contained either 2×10^5 or 5×10^4 cells grown in 800 or 200 μl, respectively. The cells were first washed with warm MEME and subsequently incubated at 37° C. in MEME supplemented with BSA (1 mg/ml) (Sigma Chemical, St. Louis, Mo.) either in the absence or presence of Salmon Calcitonin (sCT) (kindly provided by Dr. Orlowski, Rorer Central Research, Horsham, Pa.), rat calcitonin gene-related peptide (CGRP) (Bachem, Inc., Torrance, Calif.) and 3-isobutyl-1-methylxanthine (IBMX)(Sigma) for the indicated times. Incubations were terminated by aspirating the medium and adding 100 μl of 0.4% perchloric acid to each well. Perchloric acid extracts were neutralized with 1.5M KOH and stored at -20° C. These samples were acetylated and cAMP measured by radioimmunoassay using succinylated ^125 I-labeled cARP (Biomedical Technologies, Inc., Stoughton, Ma.). Results were expressed as fentomoles of CAMP per well. Experiments were performed in duplicates or triplicates and repeated at least 3 times.

[5] = test system: giant cells (fused alveolar macrophages); experiment: Generation of intracellular cAMP in giant cells (fused alveolar macrophages), radioimmunoassay; assay type: cell-based, rat
Description: as §1, §4
When peritoneal macrophages from the same animals are grown in these conditions, they remain mononucleated and can therefore be used as a nonfusing control population. It was previously confirmed that giant cells differentiate in vitro by actual cell-cell fusion since DNA synthesis cannot be detected and that the total amount of DNA remains constant during culture in both alveolar and peritoneal macrophages. Therefore, the actual number of alveolar macrophages is decreased drastically by day 4 when each giant cell contains hundreds of nuclei. The important point is that the total number of nuclei remains constant so that we refer to giant cells and peritoneal macrophages as such or else as number of plated cells.

[6] = test system: chronic rheumatoid arthritis; experiment: Treatment of chronic rheumatoid arthritis in a human being; assay type: in vivo; settings: I.M. administration of 0.5 mg every 24 hours until relief
LBRM-33 cells = experiment: IL-1 bioassay with CGRP added to IL-1 containing medium (LBRM-33 cells, CTLL readout); assay type: cell-based, murine
Description: as §3

macrophages = settings: cited from earlier work
CTLL cells = experiment: IL-2 dependent proliferation of CTLL cells treated directly; assay type: cell-based, murine; settings: in the presence of IL-2
Description: as §3

Molecule: C=C1/C(=C\C=C2/CCC[C@]3(C)[C@@H]([C@H](C)CCCC(C)(C)O)CC[C@@H]23)C[C@@H](O)C[C@@H]1O [1,25(OH)2 -vitamin D3]
IL-1 activity detected in giant cell supernatants [1]: fail to respond | IL-1 activity detected in peritoneal macrophage supernatants (peritoneal macrophages [2]): stimulated the proliferation of CTLL cells, and probably IL-1 release | IL-6 activity level in macrophage supernatants [3]: neither CGRP nor 1,25(OH)2 -vitamin D3 appear to significantly alter this process

Molecule: CC(C)Cn1c(=O)n(C)c(=O)c2[nH]cnc21 [IBMX, 3-isobutyl-1-methylxanthine]
cAMP accumulation in peritoneal macrophages (peritoneal macrophages [4]): not able at any time point measured to induce a cAMP accumulation | cAMP accumulation in giant cells ([5]; fused alveolar macrophages, any time point measured): not able at any time point measured to induce a cAMP accumulation

Molecule: C=C[C@@]1(C)CC(=O)[C@]2(O)[C@@]3(C)[C@@H](O)CCC(C)(C)[C@@H]3[C@H](O)[C@H](OC(C)=O)[C@@]2(C)O1 [forskolin]
IL-1 activity detected in giant cell supernatants [1]: as effective as CGRP in blocking the secretion of IL-1 | IL-1 activity detected in peritoneal macrophage supernatants (peritoneal macrophages [2]): as effective as CGRP in blocking the secretion of IL-1

EC50 ([5]; giant cells, sCT dose response, read-out: concentration for half maximal stimulation of cAMP accumulation): 2 nM
Molecule: CC(C)C[C@H](NC(=O)[C@H](CCCCN)NC(=O)CNC(=O)[C@H](CC(C)C)NC(=O)[C@@H](NC(=O)[C@@H]1CSSC[C@H](N)C(=O)N[C@@H](CO)C(=O)N[C@@H](CC(N)=O)C(=O)N[C@@H](CC(C)C)C(=O)N[C@@H](CO)C(=O)N[C@@H]([C@@H](C)O)C(=O)N1)C(C)C)C(=O)N[C@@H](CO)C(=O)N[C@@H](CCC(N)=O)C(=O)N[C@@H](CCC(=O)O)C(=O)N[C@@H](CC(C)C)C(=O)N[C@@H](Cc1c[nH]cn1)C(=O)N[C@@H](CCCCN)C(=O)N[C@@H](CC(C)C)C(=O)N[C@@H](CCC(N)=O)C(=O)N[C@H](C(=O)N[C@@H](Cc1ccc(O)cc1)C(=O)N1CCC[C@H]1C(=O)N[C@@H](CCCNC(=N)N)C(=O)N[C@H](C(=O)N[C@@H](CC(N)=O)C(=O)N[C@H](C(=O)NCC(=O)N[C@@H](CO)C(=O)NCC(=O)N[C@H](C(=O)N1CCC[C@H]1C(N)=O)[C@@H](C)O)[C@@H](C)O)[C@@H](C)O)[C@@H](C)O [sCT, Salmon Calcitonin]
cAMP accumulation in peritoneal macrophages (peritoneal macrophages [4]): failed to induce a response | IL-1 activity detected in giant cell supernatants [1]: reduced significantly | time of peak of cAMP accumulation after addition of the peptide ([5]; fused alveolar macrophages, absence of IBMX): 5 min | lag time to cAMP accumulation ([5]; fused alveolar macrophages, with 10 μM IBMX): 2 min | time at which cAMP returned to basal level ([5]; giant cells, absence of IBMX): 15 min | time at which cAMP returned to basal level ([5]; giant cells, presence of IBMX): 30 min | half maximal cAMP accumulation ([5]; giant cells, sCT dose response): 50 fmoles per 6.4×10^4 plated cells | IL-6 activity level in macrophage supernatants [3]: neither sCT nor CGRP treatment of the cells modified this level

EC50 (peritoneal macrophages [4]; peritoneal macrophages, 2 minutes incubation in the presence of IBMX, read-out: concentration giving half maximal concentration of cAMP): 2 nM | EC50 ([5]; fused alveolar macrophages, 2 minutes incubation in the presence of IBMX, read-out: concentration giving half maximal concentration of cAMP): 2 nM
Molecule: Rat Calcitonin Gene-Related Peptide [CGRP]
half maximal concentration of cAMP (peritoneal macrophages [4]; peritoneal macrophages, 2 minutes incubation in the presence of IBMX): 80 fmoles per 5×10^4 plated cells | IL-1 activity detected in giant cell supernatants [1]: prevented the release of IL-1 by both cell types | half maximal concentration of cAMP ([5]; fused alveolar macrophages, 2 minutes incubation in the presence of IBMX): 300 fmoles per 5×10^4 plated cells | cAMP accumulation compared with CT ([5]; macrophages, comparison CGRP vs CT): larger accumulation of cAMP in macrophages than CT | IL-1 bioactivity in supernatants of vitamin D3 stimulated peritoneal macrophages (peritoneal macrophages [2]; 1,25(OH)2-vitamin D3 stimulated peritoneal macrophages): reduce significantly | IL-1 activity detected in peritoneal macrophage supernatants (peritoneal macrophages [2]): prevented the release of IL-1 by both cell types | IL-6 activity level in macrophage supernatants [3]: neither sCT nor CGRP treatment of the cells modified this level | symptoms of the disease, e.g. pain and swelling of the affected joints [6]: amelioration of the symptoms of the disease | proliferative response of CTLL cytotoxic T cells in the IL-1 bioassay (LBRM-33 cells): prevents the proliferative response | ability of macrophages to act as APC (macrophages): profoundly inhibit | ability of macrophages to produce H2O2 in response to IFN (macrophages): profoundly inhibit | proliferation of CTLL cells (CTLL cells): did not prevent significantly their proliferation

Molecule: calcitonin [CT]
macrophage activation (macrophages): prevented macrophage activation
